Here are results for one molecule from US6753154B1, “Human AZU-1 gene, variants thereof and expressed gene products” (The Regents of the University of California, priority 1998, dated 2004).

This assay has as its system T4-2 cells. Kind of assay: Reversion assay in 3D rBM cultures with Northern blot of AZU-1 message. In kind it is cell-based, human. The conditions noted are these: 3D rBM culture; AIIB2 100 μg/ml ascites protein, Tyrphostin AG 1478 100 nM. The source says: To test this, total RNA was extracted from 3D rBM cultures of S1 cells and T4-2 cells treated with or without inhibitors of either β1 integrin (mAb AIIB2) or EGFR (Tyrphostin). Results are seen in FIG. 18. […] By virtue of its connections with β1 integrin and EGFR, AZU-1 may provide essential cellular information that dictates cellular structure and phenotype.
Total RNA was extracted from cells cultured as monolayers or in 3D rBM or cells from normal tissues or in situ carcinoma with TRIzol reagent (Life Technologies, Inc. Grand Island, N.Y.). For Northern blots, total RNA (20 μg/lane) was resolved on denaturing agarose gels and transferred to Hybond-N^+ membranes (Amersham). Resulting blots were hybridized with ^32P-labeled cDNA probes and analyzed by autoradiography. A GAPDH probe was used to normalize variations in loading.
The β1-integrin function-blocking mAb AIIB2 (C. Damsky, UCSF) was introduced into the cell-embedded substratum at a concentration of 100 μg/ml ascites protein (which corresponds to 4-10 μg/ml purified rat IgG1) at the time of Matrigel gelation. Tyrphostin AG 1478 (Calbiochem) dissolved in dimethyl sulfoxide was added to the medium at a concentration of 100 nM on alternate days. Control cultures were treated with […] and vehicle only for AIIB2 antibody and inhibitor experiments, respectively.

For `COc1cc2ncnc(Nc3cccc(Cl)c3)c2cc1OC` [Tyrphostin, Tyrphostin AG 1478], the “AZU-1 message levels in treated T4-2 cells (Northern blot)” value is “restored to S1-like levels” and the “phenotype of treated T4-2 cells in 3D rBM” value is “phenotypically reverted”.
